This note sets out measurements from US11186566B2, “Modulator of cystic fibrosis transmembrane conductance regulator, pharmaceutical compositions, methods of treatment, and process for making the modulator” (Vertex Pharmaceuticals Incorporated, priority 2016, dated 2021).

Data set [1] has as its target Human Serum Albumin (HSA) (Homo sapiens (Human), UniProt P02768). The data set is described as follows: Chromatographic determination of Human Serum Albumin (HSA) binding. The data set is classed as in vitro ADME. To be noted: ChiralPak HSA column, retention time converted to % HSA. How it is done: 5B. Chromatographic Determination of Human Serum Albumin (HSA) Assay
Chromatographic determination of Human Serum Albumin (HSA) values was performed on a UPLC-MS system using a ChiralPak® HSA column (p/n: 58469AST) from Sigma Aldrich. Mobile phase A consisted of 50 mM ammonium acetate buffer in water adjusted to pH=7.4, and mobile phase B was 2-propanol. The column compartment was kept at constant temperature of 30° C. Determination of retention time on the HSA column was performed by injecting […] of 0.5 mM of compound (in DMSO) using a linear gradient from 0%-30% B in 2.5 minutes, followed by a hold at 30% B for 2 minutes, and the final equilibration step from […] in 1.5 minutes, for a total run time of 6 minutes. Flow rate was kept constant throughout the gradient and set to 1.8 mL/min. Compound retention time on the HSA column was converted to % HSA values according to a previously published protocol (Valko, et. al, 2003) correlating column retention times to standard plasma protein binding (PPB) values obtained from dialysis experiments. HSA data for certain compounds are summarized below in Table 8 below.
Valko, K., Nunhuck, S., Bevan, C., Abraham, M. H., Reynolds, D. P. Fast Gradient HPLC Method to Determine Compounds Binding to Human Serum Albumin. Relationships with Octanol/Water and Immobilized Artificial Membrane Lipophilicity. J. of Pharm. Sci. 2003, 92, 2236-2248.

The target of data set [2] is T1, F508del-CFTR (Homo sapiens (Human), UniProt P13569, DEL508-508). Kind of data set: Membrane potential optical (fluorescent voltage sensing dye, FLIPR III) HTS assay for F508del-CFTR modulators. The format is cell-based. In a few lines:
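NIH3T3 mouse fibroblasts stably expressing F508del-CFTR were seeded on matrigel-coated plates for 18–24 h at 37 °C. For correction assays they were cultured with or without compound for that period. Membrane potential was read on FLIPR III with voltage-sensing dyes, using a pH 7.4 NaCl/HEPES bath and a chloride-free gluconate substitute solution.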

A short description of data set [3]: Rat IV and PO PK studies. The data set is classed as in vivo, male Sprague-Dawley rats. To be noted: male, Sprague-Dawley, plasma.
In data set [4] the target is human PXR (Homo sapiens (Human), UniProt O75469). The data set is described as follows: PXR assay (PXR mediated CYP3A4 induction, DPX-2 cell line). The format is cell-based. To be noted: DPX-2 cells, 48 hours, 0.1 to 60 μM. In a few lines: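 HepG2-derived DPX-2 cells stably carrying human PXR and a CYP3A4 promoter–luciferase reporter, exposed 48 h to 11 doses (0.1–60 μM); rifampicin positive control. Viability by fluorescence, then luciferase luminescence; reports max fold induction over vehicle and EC50.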

For data set [5], the target named is T1, F508del-CFTR. Kind of data set: Ussing chamber chloride transport experiments in HBE cells. The data set is classed as cell-based. The method, then: Ussing chamber experiments were performed on polarized airway epithelial cells expressing F508del to further characterize the F508del modulators identified in the optical assays. Non-CF and CF airway epithelia were isolated from bronchial tissue, cultured as previously described (Galietta, L. J. V., Lantero, S., Gazzolo, A., Sacco, O., Romano, L., Rossi, G. A., & Zegarra-Moran, O. (1998) In Vitro Cell. Dev. Biol. 34, 478-481), and plated onto Costar® Snapwell™ filters that were precoated with NIH3T3-conditioned media. After four days the apical media was removed and the cells were grown at an air liquid interface for >14 days prior to use. […] CF-HBE were isolated from patients homozygous for […] or compound heterozygous for F508del with an different disease causing mutation on the other allele.
HBE grown on Costar® Snapwell™ cell culture inserts were mounted in an Ussing chamber (Physiologic Instruments, Inc., San Diego, Calif.), and the transepithelial resistance and short-circuit current in the presence of a basolateral to apical Cl^− gradient (ISC) were measured using a voltage-clamp system (Department of Bioengineering, University of Iowa, Iowa). Briefly, HBE were examined under voltage-clamp recording conditions (Vhold=0 mV) at 37° C. The basolateral solution contained (in mM) 145 NaCl, 0.83 K2HPO4, 3.3 KH2PO4, 1.2 MgCl2, 1.2 CaCl2, 10 Glucose, 10 HEPES (pH adjusted to 7.35 with NaOH) and the apical solution contained (in mM) 145 NaGluconate, 1.2 MgCl2, 1.2 CaCl2, 10 glucose, 10 HEPES (pH adjusted to 7.35 with NaOH).
Typical protocol utilized a basolateral to apical membrane Cl^− concentration gradient. To set up this gradient, normal ringers was used on the basolateral membrane, whereas apical NaCl was replaced by equimolar sodium gluconate (titrated to pH 7.4 with NaOH) to give a large Cl^− concentration gradient across the epithelium. Modulators were added either to the basolateral side […] to assay or to the apical side during the assay. Forskolin (10 μM) was added to the apical side during the assay to stimulate CFTR-mediated Cl^− transport. […]

Data set [6] addresses T1, F508del-CFTR. The data set is described as follows: F508del-CFTR processing and trafficking in vitro (170 to 180 kDa band). The data set is classed as cell-based. To be noted: for increase in steady-state levels, fold of untreated levels: F508del/F508del-HBE cells, 16 to 24 hours. From the text: The CFTR protein delivered to the cell surface by Compound 1 alone or in combination with Compound II (Compound I/Compound II) was potentiated by Compound III.

A short description of data set [7]: Metabolism of Compound 1 in vitro and in vivo. The method, then:
Compound 1 and the metabolites shown in the following table were prepared and tested.

[8] abbreviates: Ussing Chamber, F508del/F508del-HBE cells.

“Also recorded” adds a separate entry of the source. Like-named read-outs stand apart in the source and are kept apart here. Where only a bound is given, the exact number is not on record here.

Human Serum Albumin (HSA), sequence (P02768 25-609): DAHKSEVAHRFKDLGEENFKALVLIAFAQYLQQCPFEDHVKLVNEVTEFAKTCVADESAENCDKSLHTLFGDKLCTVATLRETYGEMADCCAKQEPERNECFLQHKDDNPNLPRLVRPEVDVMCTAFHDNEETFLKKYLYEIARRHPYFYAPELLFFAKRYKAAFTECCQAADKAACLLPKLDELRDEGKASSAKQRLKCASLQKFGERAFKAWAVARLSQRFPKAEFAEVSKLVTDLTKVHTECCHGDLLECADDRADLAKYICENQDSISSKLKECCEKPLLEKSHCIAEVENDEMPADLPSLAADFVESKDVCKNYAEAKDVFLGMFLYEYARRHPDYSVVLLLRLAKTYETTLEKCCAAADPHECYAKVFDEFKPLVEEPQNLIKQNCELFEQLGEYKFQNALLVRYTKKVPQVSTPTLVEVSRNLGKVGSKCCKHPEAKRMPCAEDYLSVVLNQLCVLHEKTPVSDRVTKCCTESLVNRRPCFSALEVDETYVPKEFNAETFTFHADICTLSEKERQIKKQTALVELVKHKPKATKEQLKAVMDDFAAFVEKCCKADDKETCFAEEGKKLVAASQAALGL
T1 sequence (P13569 other isoform, or with tags, fused parts or gaps del F508-F508): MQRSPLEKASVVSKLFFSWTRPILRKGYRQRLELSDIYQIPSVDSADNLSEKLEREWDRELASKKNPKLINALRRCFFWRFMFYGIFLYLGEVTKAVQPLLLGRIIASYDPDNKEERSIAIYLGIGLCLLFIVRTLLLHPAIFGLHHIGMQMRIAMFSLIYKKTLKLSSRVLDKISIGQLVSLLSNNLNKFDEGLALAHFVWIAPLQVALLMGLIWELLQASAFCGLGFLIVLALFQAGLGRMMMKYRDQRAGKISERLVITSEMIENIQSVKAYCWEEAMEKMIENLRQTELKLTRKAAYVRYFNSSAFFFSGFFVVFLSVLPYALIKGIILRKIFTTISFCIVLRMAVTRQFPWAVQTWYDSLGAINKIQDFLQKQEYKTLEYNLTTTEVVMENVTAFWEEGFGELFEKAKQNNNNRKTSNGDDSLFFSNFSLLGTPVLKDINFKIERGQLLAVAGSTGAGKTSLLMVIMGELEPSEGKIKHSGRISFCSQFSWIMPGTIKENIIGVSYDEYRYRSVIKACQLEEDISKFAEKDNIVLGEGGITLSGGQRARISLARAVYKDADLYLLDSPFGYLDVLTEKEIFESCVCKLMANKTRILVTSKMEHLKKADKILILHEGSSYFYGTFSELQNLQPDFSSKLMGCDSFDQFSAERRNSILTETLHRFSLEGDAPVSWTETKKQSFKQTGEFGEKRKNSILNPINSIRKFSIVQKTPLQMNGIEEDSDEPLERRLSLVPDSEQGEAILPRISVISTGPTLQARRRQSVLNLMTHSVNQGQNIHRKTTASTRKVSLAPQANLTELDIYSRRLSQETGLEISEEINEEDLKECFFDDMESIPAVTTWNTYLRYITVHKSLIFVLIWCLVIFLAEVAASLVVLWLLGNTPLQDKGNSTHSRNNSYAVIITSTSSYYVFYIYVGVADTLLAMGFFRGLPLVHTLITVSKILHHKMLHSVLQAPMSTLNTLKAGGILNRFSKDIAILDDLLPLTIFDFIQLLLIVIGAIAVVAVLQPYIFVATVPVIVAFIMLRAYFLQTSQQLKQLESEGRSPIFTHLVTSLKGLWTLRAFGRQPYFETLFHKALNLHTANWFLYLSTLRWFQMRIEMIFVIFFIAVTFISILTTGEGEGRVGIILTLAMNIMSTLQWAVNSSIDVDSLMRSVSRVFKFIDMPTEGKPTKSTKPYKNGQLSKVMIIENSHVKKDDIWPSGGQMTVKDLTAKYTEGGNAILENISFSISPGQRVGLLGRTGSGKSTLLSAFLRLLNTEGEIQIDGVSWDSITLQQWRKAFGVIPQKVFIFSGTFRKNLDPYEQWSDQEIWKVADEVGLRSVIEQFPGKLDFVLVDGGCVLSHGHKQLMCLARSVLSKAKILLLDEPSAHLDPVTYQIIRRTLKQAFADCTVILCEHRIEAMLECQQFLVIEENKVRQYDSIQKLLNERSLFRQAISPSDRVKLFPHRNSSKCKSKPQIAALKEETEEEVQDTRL
human PXR, sequence (O75469 whole entry): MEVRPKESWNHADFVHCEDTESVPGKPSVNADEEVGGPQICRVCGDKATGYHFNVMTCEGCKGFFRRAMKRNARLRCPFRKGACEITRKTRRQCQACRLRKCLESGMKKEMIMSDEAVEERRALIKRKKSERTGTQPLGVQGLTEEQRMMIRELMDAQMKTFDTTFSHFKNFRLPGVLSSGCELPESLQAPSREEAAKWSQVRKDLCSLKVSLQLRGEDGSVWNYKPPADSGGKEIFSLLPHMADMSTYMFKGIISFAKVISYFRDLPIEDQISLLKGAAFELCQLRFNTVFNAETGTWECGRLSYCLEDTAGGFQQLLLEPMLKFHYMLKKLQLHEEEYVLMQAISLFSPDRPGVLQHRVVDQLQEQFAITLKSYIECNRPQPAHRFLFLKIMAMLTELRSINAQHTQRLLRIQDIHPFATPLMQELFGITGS

As for `C[C@@H]1CN(c2nc(-n3ccc(OCC4(C(F)(F)F)CC4)n3)ccc2C(=O)NS(=N)(=O)c2ccccc2)C(C)(C)C1` (mixture of isomers), the HSA binding in data set [1] is 98.1%.
The same measure, in the same setting: with `C[C@@H]1CN(c2nc(-n3ccc(OCC4(C(F)(F)F)CC4)n3)ccc2C(=O)NS(=N)(=O)c2ccccc2)C(C)(C)C1` (single isomer, unassigned) [drawing 339] the figure was 97.9%; with `C[C@@H]1CN(c2nc(-n3ccc(OCC4(C(F)(F)F)CC4)n3)ccc2C(=O)NS(=N)(=O)c2ccccc2)C(C)(C)C1` (single isomer, unassigned) [drawing 340], 98.4%.
What is called EC50 is the midpoint of the concentration-response curve. One may read the AUC as the area under the concentration-time curve, a measure of exposure. A higher AUC goes with high exposure. `C[C@@H]1CN(c2nc(-n3ccc(OCCC4(C(F)(F)F)CC4)n3)ccc2C(=O)NS(=O)(=O)c2ccccc2)C(C)(C)C1` [Compound 1, N-(benzenesulfonyl)-6-[3-[2-[1-(trifluoromethyl)cyclopropyl]ethoxy]pyrazol-1-yl]-2-[(4S)-2,2,4-trimethylpyrrolidin-1-yl]pyridine-3-carboxamide]: the EC50 in data set [2] (F508del NIH 3T3 cells, assay 5A-A1, read-out: CFTRdF508 EC50) was below 100 nM; in data set [2] (F508del NIH 3T3 cells, assay 5A-A1, read-out: EC50), below 3000 nM; in data set [2] (Table 7, Compound 1 and metabolites, read-out: CFTRdF508 EC50) it was 30 nM; in data set [2] (Table 9, read-out: CFTR dF508 EC50), 30 nM. The Emax in data set [2] (NIH3T3, F508del NIH 3T3 cells, relative to Compound II, read-out: % Efficacy relative to Compound II) is at least 100%. Moreover, the bioavailability in data set [3] (3 mg/kg, oral, read-out: Rat po % F) stood at 63%. Moreover, the clearance in data set [3] (intravenous, 3.0 mg/kg, read-out: Rat iv CL) is 1.6 mL/min/kg. The molecule also registered an AUC in data set [3] (oral, 3 mg/kg) of 21000 ng·h/mL. Moreover, in data set [4], the “PXR Max Induction (% of rifampicin)” value was 3 % of rifampicin. The chloride transport result in data set [5] (setting [8]) is on record as “enhanced chloride transport”. For the same molecule, in data set [5] (setting [8]), the “effect on chloride transport in relation to the effect of Compound II” value was “additive to the effect of Compound II”. Besides, the “increase in steady-state levels, fold of untreated levels” value in data set [6] is on record as 6.5 fold; in data set [6] (Compound 1 in combination with 3 μM Compound II), 18.7 fold. Further, in data set [6] (in vitro), the “processing and trafficking of F508del-CFTR” value was “improved the processing and trafficking of F508del-CFTR; also recorded: facilitates the processing and trafficking of F508del-CFTR”. The metabolism entry in data set [7] was “metabolized both in vitro and in vivo, mostly by oxidative metabolism”.
Turning to `CC(C)(C)c1cc(C(C)(C)C)c(NC(=O)c2c[nH]c3ccccc3c2=O)cc1O` [Compound III, N-(5-hydroxy-2,4-di-tert-butyl-phenyl)-4-oxo-1H-quinoline-3-carboxamide, reference compound], the “potentiation of F508del-CFTR delivered to the cell surface by Compound I alone or in combination with Compound II” value in data set [5] (HBE cells) is “potentiated”.
For `C[C@@H]1CN(c2nc(-n3ccc(OCC4(C(F)(F)F)CC4)n3)ccc2C(=O)NS(=O)(=O)c2ccccc2)C(C)(C)C1` [drawing 337], the HSA binding in data set [1] was 99.1%.
